Read-outs that look alike come from different tables or passages of the source. Marks after values point to notes of the source that are not given here.
Test system: biomarker (antibody) in serum samples from patients with symptoms of tuberculosis
Type: binding, human

For CCCCCCCCCCCCCCCCCCCCCC[C@@H](C(=O)OC[C@H]1O[C@H](OC)[C@@H](O)[C@@H]1O)[C@H](O)CCCCCCCCCCCCCCCCC[C@@H]1C[C@@H]1CCCCCCCCCCCCCCCC[C@@H](OC)[C@@H](C)CCCCCCCCCCCCCCCCCC [Antigen A], the “ELISA absorbance at 492 nm” value (serum sample 1 TB+) was 0.28*, the “ELISA absorbance at 492 nm” value (serum sample 2 TB+) was 0.29* and the “ELISA absorbance at 492 nm” value (serum sample 3 TB+) was 0.30*. For the same compound, the “ELISA absorbance at 492 nm” value (serum sample 4 TB+) was 0.50*, the “ELISA absorbance at 492 nm” value (serum sample 5 TB+) was 0.28* and the “ELISA absorbance at 492 nm” value (serum sample 6 TB+) was 0.28*. The “ELISA absorbance at 492 nm” value (serum sample 7 TB+) was 0.93*, the “ELISA absorbance at 492 nm” value (serum sample 8 TB+) was 0.47* and the “ELISA absorbance at 492 nm” value (serum sample 9 TB+) was 0.29*. The “ELISA absorbance at 492 nm” value (serum sample 10 TB−) was 0.21, the “ELISA absorbance at 492 nm” value (serum sample 11 TB−) was 0.20 and the “ELISA absorbance at 492 nm” value (serum sample 12 TB−) was 0.18. For the same compound, the “ELISA absorbance at 492 nm” value (serum sample 13 TB−) was 0.22, the “ELISA absorbance at 492 nm” value (serum sample 14 TB−) was 0.49* and the “ELISA absorbance at 492 nm” value (serum sample 15 TB−) was 0.23. The “ELISA absorbance at 492 nm” value (serum sample 16 TB−) was 0.31*, the “ELISA absorbance at 492 nm” value (serum sample 17 TB−) was 0.52* and the “ELISA absorbance at 492 nm” value (serum sample 18 TB−) was 0.28*. The “ELISA absorbance at 492 nm” value (serum sample 19 TB−) was 0.20, the “ELISA absorbance at 492 nm” value (serum sample 20 TB−) was 0.34* and the “ELISA absorbance at 492 nm” value (serum sample 21 TB−) was 0.47*. The “ELISA absorbance at 492 nm” value (serum sample 22 TB−) was 0.23, the “ELISA absorbance at 492 nm” value (serum sample 23 TB−) was 0.25 and the “ELISA absorbance at 492 nm” value (serum sample 24 TB−) was 0.29*. For the same compound, the “ELISA absorbance at 492 nm” value (serum sample 25 TB−) was 0.18, the “ELISA absorbance at 492 nm” value (serum sample 26 TB−) was 0.52* and the “ELISA absorbance at 492 nm” value (serum sample 27 TB−) was 0.31*. The “ELISA absorbance at 492 nm” value (serum sample 28 TB−) was 0.28*, the “ELISA absorbance at 492 nm” value (serum sample 29 TB−) was 0.28* and the “ELISA absorbance at 492 nm” value (serum sample 30 TB−) was 0.32*. For the same compound, the “ELISA absorbance at 492 nm” value (serum sample 31 TB−) was 0.31*, the “ELISA absorbance at 492 nm” value (serum sample 32 TB−) was 0.34* and the “ELISA absorbance at 492 nm” value (serum sample 33 TB−) was 0.18. For the same compound, the “ELISA absorbance at 492 nm” value (serum sample 34 TB−) was 0.39*, the “ELISA absorbance at 492 nm” value (serum sample 35 TB−) was 0.23 and the “ELISA absorbance at 492 nm” value (serum sample 36 TB−) was 0.11. The “ELISA absorbance at 492 nm” value (serum sample 37 TB−) was 0.28*, the “ELISA absorbance at 492 nm” value (serum sample 38 TB−) was 0.29* and the “ELISA absorbance at 492 nm” value (serum sample 39 TB−) was 0.21. For the same compound, the “ELISA absorbance at 492 nm” value (serum sample 40 TB−) was 0.18, the “ELISA absorbance at 492 nm” value (serum sample 41 TB−) was 0.18 and the “ELISA absorbance at 492 nm” value (serum sample 42 TB−) was 0.30*. For the same compound, the “ELISA absorbance at 492 nm” value (serum sample 43 TB−) was 0.25, the “ELISA absorbance at 492 nm” value (serum sample 44 TB−) was 0.41* and the “ELISA absorbance at 492 nm” value (serum sample 45 TB−) was 0.33*. For the same compound, the “ELISA absorbance at 492 nm” value (serum sample 46 TB−) was 0.13, the “ELISA absorbance at 492 nm” value (serum sample 47 TB−) was 0.34* and the “ELISA absorbance at 492 nm” value (serum sample 48 TB−) was 0.32*. For the same compound, the “ELISA absorbance at 492 nm” value (serum sample 49 TB−) was 0.38*, the “ELISA absorbance at 492 nm” value (serum sample 50 TB−) was 0.35* and the “ELISA absorbance at 492 nm” value (serum sample 51 TB−) was 0.11. The “ELISA absorbance at 492 nm” value (serum sample 52 TB−) was 0.21, the “ELISA absorbance at 492 nm” value (serum sample 53 TB−) was 0.16 and the “ELISA absorbance at 492 nm” value (serum sample 54 TB−) was 0.17. For the same compound, the “ELISA absorbance at 492 nm” value (serum sample 55 TB−) was 0.24, the “ELISA absorbance at 492 nm” value (serum sample 56 TB−) was 0.68* and the “ELISA absorbance at 492 nm” value (serum sample 57 TB−) was 0.25. For the same compound, the “ELISA absorbance at 492 nm” value (serum sample 58 TB−) was 0.25, the “ELISA absorbance at 492 nm” value (serum sample 59 TB−) was 0.33* and the “ELISA absorbance at 492 nm” value (serum sample 60 TB−) was 0.37*. The “ELISA absorbance at 492 nm” value (serum sample 61 TB−) was 0.52*, the “ELISA absorbance at 492 nm” value (serum sample 62 TB−) was 0.19 and the “ELISA absorbance at 492 nm” value (serum sample 63 TB−) was 0.16. The “ELISA absorbance at 492 nm” value (serum sample 64 TB−) was 2.50*.

From patent publication US11162944B2, “Compositions and methods” (priority 2015, dated 2021)
